Data set [1] concerns carrageenan-induced edema in rat paw. Nature of the data set: Inhibition of carrageenan-induced paw edema in rats. The following applies: vs vehicle control; aspirin 150 mg/kg p.o., hydrocortisone 25 mg/kg p.o., PIP[4,4,4] 30 mg/kg i.p.; >30% significant. A general note: The carrageenan paw model is a standard test of acute inflammation.
For data set [2], the system named is adjuvant-induced arthritis. Nature of the data set: Adjuvant-induced arthritis model in Lewis rats (Table 7). The conditions noted are these: p.o. 5 days, DiPIPs 100 mg/kg, Voltaren and indomethacin 6 mg/kg; for % FINAL INHIBITION: Day 28-0.
Experimental: Four groups consisting of 6 male Lewis rats weighing 150-200 g were injected subcutaneously at the base of the tail with 0.1 ml of CFA. Drugs to be assayed were administered 5 days beginning on the day of the adjuvant injection. The paw volume of the right and left rear paw of each rat were measured on the day of adjuvant injection and at regular intervals for 30 days thereafter.
The emulsion was injected subcutaneously at the base of the tail and induced the arthritic state. Measurements of paw volume were made for 30 days to monitor paw swelling. Drug treatment began on Day 0.
Four groups consisting of 10 male Lewis rats weighing 150-200 g were injected subcutaneously at the base of the tail with 0.1 ml of CFA. Drugs to be assayed were administered for 5 days beginning on the day of the adjuvant injection.
The subject of data set [3] is adjuvant-induced arthritis. The conditions noted are these: for Inhibition % B (5-0): 5th day after 5 doses; for Inhibition % B (5-0) / Inhibition % A (1-0): p.o.: PIP[4,4,4] 100, hydrocortisone 30, indomethacin 5 mg/kg; for Inhibition % B (5-0) / Inhibition % A (1-0) / Inhibition % C (5-1) / Inhibition % D (14-0) / Inhibition % F (18-14) / Inhibition % E (18-0): >30% significant; for Net swelling of paw volume A (1-0), average: Day 1 - Day 0, average; for Net swelling of paw volume B (5-0), average: Day 5 - Day 0, average; for Net swelling of paw volume B (5-0): Day 5 - Day 0, individual rat; for Net swelling of paw volume C (5-1), average: Day 5 - Day 1, average; for Net swelling of paw volume C (5-1): Day 5 - Day 1, individual rat; for Polyarthritis E (ears) / Polyarthritis N (noses) / Polyarthritis P (paws) / Polyarthritis T (tails): Day 19, individual rat; for Inhibition % A (1-0): first day, after one dose; for Inhibition % C (5-1): paw volume change Day 1 to Day 5; for Net swelling of paw volume D (14-0), average / Net swelling of paw volume D (14-0) / Inhibition % D (14-0) / Inhibition % F (18-14) / Net swelling of paw volume E (18-0), average / Net swelling of paw volume E (18-0) / Net swelling of paw volume F (18-14), average / Net swelling of paw volume F (18-14) / Inhibition % E (18-0): untreated paw; for Net swelling of paw volume D (14-0), average: Day 14 - Day 0, average; for Net swelling of paw volume D (14-0): Day 14 - Day 0, individual rat; for Inhibition % D (14-0): Day 14 relative to Day 0; for Inhibition % F (18-14): Day 14 to Day 18; for Net swelling of paw volume E (18-0), average: Day 18 - Day 0, average; for Net swelling of paw volume E (18-0): Day 18 - Day 0, individual rat; for Net swelling of paw volume F (18-14), average: Day 18 - Day 14, average; for Net swelling of paw volume F (18-14): Day 18 - Day 14, individual rat; for Inhibition % E (18-0): Day 18 relative to Day 0; for Weight gain reductions (in words): vs vehicle-treated animals, 18 day study.

[4] abbreviates: p.o. × 5: PIP[4,4,4] 100, hydrocortisone 30, indomethacin 5 mg/kg.

The structures appear in SMILES notation. Where “and” joins values, the source holds several entries; their conditions need not be identical. Equal entries are not always repeated.

This is an account of results in US5843959A, “Methods and bicyclic polyamine compositions for the treatment of inflammation” (University of Florida Research Foundation, Inc., priority 1997, dated 1998).

Take `CC(=O)Oc1ccccc1C(=O)O` [Aspirin]: in data set [1], the “% Edema inhibition” value was 46%.

With `COc1ccc2c(c1)c(CC(=O)O)c(C)n2C(=O)c1ccc(Cl)cc1` [Indomethacin], in data set [2], the “% FINAL INHIBITION” value stood at 93%, the “FINAL DAY 28-0 (paw volume)” value is recorded as 0.14 and the “INITIAL DAY 14-0 (paw volume)” value is listed as “.004”. In data set [3], the “Inhibition % B (5-0)” value stood at 48%, the “Inhibition % A (1-0)” value was 36% and the “Weight gain reductions (in words)” value was “did not affect weight gain reductions”. In addition, in data set [3] (setting [4]), the “Net swelling of paw volume A (1-0), average” value stood at 0.53 mL; the “Net swelling of paw volume B (5-0), average” value was 0.85 mL; the “Net swelling of paw volume B (5-0)” value is 0.84 mL and 0.86 mL and 0.72 mL and 0.81 mL and 1.02 mL; the “Net swelling of paw volume C (5-1), average” value is 0.32 mL. Besides, in data set [3] (setting [4]), the “Net swelling of paw volume C (5-1)” value is 0.31 mL and 0.28 mL and 0.14 mL and 0.30 mL and 0.57 mL; the “Polyarthritis E (ears)” value is given as “-”; the “Polyarthritis N (noses)” value was “-”; the “Polyarthritis P (paws)” value is reported as “-”. In addition, in data set [3] (setting [4]), the “Polyarthritis T (tails)” value was “-”; the “Inhibition % C (5-1)” value worked out at 61%; the “Net swelling of paw volume D (14-0), average” value is 0.28 mL; the “Net swelling of paw volume D (14-0)” value was 0.20 mL and 0.40 mL and 0.26 mL and 0.42 mL and 0.12 mL. Further, in data set [3] (setting [4]), the “Inhibition % D (14-0)” value worked out at 38%; the “Inhibition % F (18-14)” value is reported as 50%; the “Net swelling of paw volume E (18-0), average” value stood at 0.43 mL; the “Net swelling of paw volume E (18-0)” value is 0.43 mL and 0.50 mL and 0.51 mL and 0.49 mL and 0.22 mL. In data set [3] (setting [4]), the “Net swelling of paw volume F (18-14), average” value was found to be 0.15 mL; the “Net swelling of paw volume F (18-14)” value is 0.23 mL and 0.10 mL and 0.25 mL and 0.07 mL; the “Inhibition % E (18-0)” value came out at 43%. Besides, the “Net swelling of paw volume A (1-0)” value in data set [3] (Day 1 - Day 0, individual rat, p.o. × 5: PIP[4,4,4] 100, hydrocortisone 30, indomethacin 5 mg/kg) is 0.53 mL and 0.58 mL and 0.51 mL and 0.45 mL. Also, the “B.W. Gain (18-0), average” value in data set [3] (rat, in vivo) is 8 g.

For `C[C@]12CCC(=O)C=C1CC[C@@H]1[C@@H]2[C@@H](O)C[C@@]2(C)[C@H]1CC[C@]2(O)C(=O)CO` [Hydrocortisone], the “% Edema inhibition” value in data set [1] was 32%. Moreover, in data set [3], the “Inhibition % B (5-0)” value was found to be 36%, the “Inhibition % A (1-0)” value is listed as 12% and the “Weight gain reductions (in words)” value was “did not affect weight gain reductions”. For the same molecule, in data set [3] (setting [4]), the “Net swelling of paw volume A (1-0), average” value is 0.73 mL; the “Net swelling of paw volume B (5-0), average” value came out at 1.06 mL; the “Net swelling of paw volume B (5-0)” value is 0.89 mL and 0.96 mL and 0.86 mL and 0.98 mL and 1.61 mL; the “Net swelling of paw volume C (5-1), average” value turned out to be 0.33 mL. For the same molecule, in data set [3] (setting [4]), the “Net swelling of paw volume C (5-1)” value was 0.11 mL and 0.31 mL and 0.16 mL and 0.91 mL; the “Polyarthritis E (ears)” value is on record as “-”; the “Polyarthritis N (noses)” value is recorded as “-”; the “Polyarthritis P (paws)” value was “+ and -”. Further, in data set [3] (setting [4]), the “Polyarthritis T (tails)” value is recorded as “-”; the “Inhibition % C (5-1)” value was found to be 60%; the “Net swelling of paw volume D (14-0), average” value was 0.35 mL; the “Net swelling of paw volume D (14-0)” value is 0.43 mL and 0.31 mL and 0.30 mL and 0.38 mL and 0.33 mL. Also, in data set [3] (setting [4]), the “Inhibition % D (14-0)” value came out at 22%; the “Inhibition % F (18-14)” value was 37%; the “Net swelling of paw volume E (18-0), average” value stood at 0.54 mL; the “Net swelling of paw volume E (18-0)” value was 0.53 mL and 0.38 mL and 0.66 mL and 0.72 mL and 0.41 mL. In data set [3] (setting [4]), the “Net swelling of paw volume F (18-14), average” value is 0.19 mL; the “Net swelling of paw volume F (18-14)” value is 0.10 mL and 0.07 mL and 0.36 mL and 0.34 mL and 0.08 mL; the “Inhibition % E (18-0)” value is 28%.

Regarding `C(CCNC1CCNCC1)CNC1CCNCC1` [DiPIP[3,4,3], N,N'-Bis(4-piperidinyl)-1,4-butanediamine], in data set [2], the “% FINAL INHIBITION” value was 70% and 41%.

In the case of `O=C(O)Cc1ccccc1Nc1c(Cl)cccc1Cl` [Voltaren], in data set [2], the “% FINAL INHIBITION” value is 67%, the “FINAL DAY 28-0 (paw volume)” value is recorded as “.629” and the “INITIAL DAY 14-0 (paw volume)” value is “.232”.
